For data set [1] the following is noted: taken with meals; cited from earlier work.
The test system of data set [2] is patients diagnosed with Alzheimer's disease of mild-to-moderate severity. The experiment in a line: T2 Protect AD Phase 2/3 trial: ADAS-Cog 11. It counts as in vivo, human. The conditions noted are these: for ADAS-Cog Total Score Week 48 Model Estimates LSMean (SE): Week 48, change from baseline; for ADAS-Cog Total Score Week 48 Model Estimates LSMean (SE) Difference: Week 48, placebo vs troriluzole.
Description: (§1) The ADAS-Cog 11 evaluates memory (word recall, word recognition), reasoning (following commands), language (naming, comprehension), orientation, ideational praxis (placing a letter in an envelope) and constructional praxis (copying geometric designs). Ratings of spoken language, language comprehension, word finding difficulty, and ability to remember test instructions are also obtained. The test is scored in terms of errors, with higher scores reflecting poorer performance and greater impairment. Scores can range from 0 (best) to 70 (worse).
The primary efficacy endpoint is the within-participant change in ADAS-Cog 11 from baseline to week 48, compared between the treatment group and the placebo group.
as §1, with “11 (Rosen, Mohs, & Davis, 1984) is a structured scale that” for “11”
(§2) The T2 Protect AD trial has been conducted, which is a Phase 2/3, randomized, double-blind, placebo-controlled study evaluating the efficacy and safety of troriluzole in patients diagnosed with Alzheimer's disease of mild-to-moderate severity (Mini-Mental State Examination [MMSE] scores of 14-24; mild: 20-24, moderate: 14-19).

For data set [3] the test system is unchanged. Description: T2 Protect AD Phase 2/3 trial: CDR-Sum of Boxes. Type of data set: in vivo, human. The conditions noted are these: for CDR01-Sum of Boxes Week 48 Model Estimates LSMean (SE): Week 48, change from baseline; for CDR01-Sum of Boxes Week 48 Model Estimates LSMean (SE) Difference: Week 48, placebo vs troriluzole.
Description: The CDR-SOB (Hughes, Berg, Danziger, Coben, & Martin, 1982) is a validated composite rating of cognition and everyday functioning used in longitudinal AD research which incorporates both informant input and direct assessment of performance. It assesses through semi structured interview 3 cognitive domains including memory, orientation, and judgement/problem solving and 3 everyday functional domains including community affairs, home and hobbies and personal care. There are 5 levels of impairment from none CDR=0 to severe CDR=3. The individual domain scores are added to create a sum of the box scores.
as §2

For data set [4] the test system is unchanged. The experiment in a line: T2 Protect AD Phase 2/3 trial: volumetric hippocampal MRI. The conditions noted are these: for Hippocampal Volume Change Week 48 Model Estimates LSMean (SE) Difference: Week 48, placebo vs troriluzole. Type of data set: in vivo, human.
Description: vMRI allows the in vivo assessment of brain structure volume and provides a measure of atrophy rate. […] Atrophy of the medial temporal lobe, including hippocampus and entorhinal cortex, has long been described in vMRI studies of AD. Hippocampal volume derived from MRI correlates with histological hippocampal volume and degree of neuronal loss and AD pathology, and entorhinal cortical thickness change appears to be an early and sensitive indicator of neurodegeneration associated with AD (Holland et al., 2009; Jack et al., 2004).
Participants will undergo vMRI scans of the brain at screening, week 24 and week 48 in order to assess for changes in brain volumes that may be associated with clinical change due to treatment with BHV-4157.
Volumetric MRI scans will use the same imaging protocol, which will include a localizer scan, a 3D T1weighted sagittal acquisition (MPRAGE or IR-SPGR), a T2-weighted FLAIR axial acquisition, a T2* gradient recalled echo axial acquisition for magnetic susceptibility, and a diffusion weighted axial acquisition to assess for restricted diffusion.
Images will be checked for image quality and adherence to scanning protocols. 3D T1-weighted datasets passing quality checks will be corrected for spatial distortion and for intensity variation. Screening and follow-up datasets for each participant will be spatially registered to one another using rigid-body registration followed by nonlinear registration and neuroanatomic parcellation to quantify whole-brain and subregional volumetric change on a patient-by patient basis.
Whole brain volume (WBV, excluding cerebellum), bilateral ventricular volume and bilateral hippocampal volume will be measured. Quantitative anatomical regional change (Quarc) will be used as the computational MR image processing application. Detail for the statistical computations is given in the Statistical Analytical Plan (SAP).
as §2

For data set [5] the test system is unchanged. Description: T2 Protect AD Phase 2/3 trial: neuropsychiatric inventory (NPI). It counts as in vivo, human. The conditions noted are these: after 48 weeks.
Description: The NPI is a well-validated, reliable, multi-item instrument to assess psychopathology in AD dementia based on the results of an interview with the study partner (Cummings, 1997). The NPI evaluates both the frequency and severity of 10 neuropsychiatric features, including delusions, hallucinations, agitation/aggression, dysphoria, anxiety, euphoria, apathy, disinhibition, irritability and lability, and aberrant motor behavior, as well as evaluates sleep and appetite/eating disorders. Frequency assessments range from 1 (occasionally, less than once per week) to 4 (very frequently, once or more per day or continuously). Severity assessments range from 1 (mild) to 3 (severe). The score for each subscale is the product of severity and frequency and the total score is the sum of all subscales.
as §2

The mark [6] stands for this setting: mild-to-moderate AD, all patients, Week 48.
Setting [7] is: mild-to-moderate AD, all patients.

We go through 2 compounds from patent publication US12201618B2 (Biohaven Therapeutics Ltd., priority 2018, dated 2025).

Molecules are shown by their SMILES.

Take `Nc1nc2ccc(OC(F)(F)F)cc2s1` [Riluzole, 6-(trifluoromethoxy)benzothiazol-2-amine]: the “food effect on exposure” value in data set [1] is “reduced exposure when taken with meals”.
As for `CN(CC(=O)Nc1nc2ccc(OC(F)(F)F)cc2s1)C(=O)CNC(=O)CN` [Troriluzole], in data set [2] (Mild AD Patients Only, Week 48), the “ADAS-Cog Total Score Week 48 Analysis Value Mean (SD)” value was 26.2 (8.22), the “ADAS-Cog Total Score Week 48 Analysis Value Median” value was found to be 26.0, the “ADAS-Cog Total Score Week 48 Change from Baseline Mean (SD)” value is listed as 3.9 (5.90) and the “ADAS-Cog Total Score Week 48 Change from Baseline Median” value is reported as 4.0. For the same compound, in data set [2] (Mild AD Patients Only), the “ADAS-Cog Total Score Week 48 Model Estimates LSMean (SE)” value was 4.2 (0.76) and the “ADAS-Cog Total Score Week 48 Model Estimates LSMean (SE) Difference” value is reported as 0.7 (1.02). In addition, the “ADAS-Cog11 score LS mean change difference versus placebo” value in data set [2] (mild AD, after 48 weeks, 95% CI: −1.4, 2.7, p-value=0.5233) is reported as 0.7. Also, the “LS mean change from baseline on the ADAS-Cog11 score” value in data set [2] (mild AD, after 48 weeks, n=65) is recorded as 4.2 points. Further, in data set [2] (setting [6]), the “ADAS-Cog Total Score Week 48 Analysis Value Median” value is listed as 30.0, the “ADAS-Cog Total Score Week 48 Change from Baseline Mean (SD)” value is given as 5.8 (7.40) and the “ADAS-Cog Total Score Week 48 Change from Baseline Median” value is 6.0. In data set [2] (mild-to-moderate AD, all patients, Week 48, 280 mg once daily), the “ADAS-Cog Total Score Week 48 Analysis Value Mean (SD)” value was 31.5 (10.82). For the same compound, in data set [2] (setting [7]), the “ADAS-Cog Total Score Week 48 Model Estimates LSMean (SE)” value is listed as 6.7 (0.70) and the “ADAS-Cog Total Score Week 48 Model Estimates LSMean (SE) Difference” value was 0.0 (0.93). Besides, in data set [3] (Mild AD Patients Only), the “CDR01-Sum of Boxes Week 48 Analysis Value Mean (SD)” value is given as 7.1 (2.79), the “CDR01-Sum of Boxes Week 48 Analysis Value Median” value is listed as 6.5, the “CDR01-Sum of Boxes Week 48 Change from Baseline Mean (SD)” value is 1.4 (2.06) and the “CDR01-Sum of Boxes Week 48 Change from Baseline Median” value came to 1.0. Moreover, in data set [3] (Mild AD Patients Only), the “CDR01-Sum of Boxes Week 48 Model Estimates LSMean (SE)” value is recorded as 1.7 (0.29) and the “CDR01-Sum of Boxes Week 48 Model Estimates LSMean (SE) Difference” value is on record as −0.3 (0.40). In data set [3] (setting [7]), the “CDR01-Sum of Boxes Week 48 Analysis Value Mean (SD)” value was 8.3 (3.24), the “CDR01-Sum of Boxes Week 48 Analysis Value Median” value is reported as 8.0, the “CDR01-Sum of Boxes Week 48 Change from Baseline Mean (SD)” value was 1.9 (2.37) and the “CDR01-Sum of Boxes Week 48 Change from Baseline Median” value is 2.0. Further, in data set [3] (setting [7]), the “CDR01-Sum of Boxes Week 48 Model Estimates LSMean (SE)” value is 2.1 (0.21) and the “CDR01-Sum of Boxes Week 48 Model Estimates LSMean (SE) Difference” value is −0.2 (0.28). For the same compound, in data set [4] (Mild AD Patients Only), the “Hippocampal Volume Change Week 48 Analysis Value Mean (SD)” value is recorded as −1.1 (1.61), the “Hippocampal Volume Change Week 48 Analysis Value Median” value was −0.9, the “Hippocampal Volume Change Week 48 Model Estimates LSMean (SE)” value is reported as −1.1 (0.27) and the “Hippocampal Volume Change Week 48 Model Estimates LSMean (SE) Difference” value is given as −0.5 (0.38). Besides, the “hippocampal volume LS mean percent deformation change difference versus placebo” value in data set [4] (mild AD, after 48 weeks, 95% CI: −1.2, 0.3, p-value=0.2240) was −0.5%. The “LS mean percent deformation change from baseline hippocampal volume” value in data set [4] (mild AD, after 48 weeks, n=48) was −1.1%. For the same compound, in data set [4] (setting [7]), the “Hippocampal Volume Change Week 48 Analysis Value Mean (SD)” value is on record as −1.1 (1.50), the “Hippocampal Volume Change Week 48 Analysis Value Median” value is −0.9, the “Hippocampal Volume Change Week 48 Model Estimates LSMean (SE)” value is −1.1 (0.18) and the “Hippocampal Volume Change Week 48 Model Estimates LSMean (SE) Difference” value is listed as 0.0 (0.26). Further, the “NPI score LS mean change difference versus placebo” value in data set [5] (mild AD, 95% CI: −5.99, 1.78, p-value=0.286) is recorded as −2.1. Also, in data set [5] (mild AD, n=62), the “LS mean change from baseline on the NPI score” value worked out at 2.1 points. For the same compound, in data set [5] (mild-to-moderate AD, 95% CI: −4.08, 1.10, p-value=0.258), the “NPI score LS mean change difference versus placebo” value is −1.5. In addition, in data set [5] (mild-to-moderate AD, n=120), the “LS mean change from baseline on the NPI score” value is listed as 2.3 points.
